In patent US20120108668A1, “METABOLIC PROFILES” (priority 2009, published 2012):

Legend:
[1] = tested on: AIA DA rats; assay: Treatment of RA in an AIA rat model with an experimental substance; serum metabolite profile by GC/TOFMS and OPLS-DA; assay type: in vivo, Dark Agouti (DA) rats; details: treated vs untreated; for regulation of endogenous metabolite levels in treated animals (OPLS-DA loadings): FIG. 7B
From the text: Treatment of RA in an AIA Rat Model with an Experimental Substance (Arginine)
AIA was induced in three Dark Agouti (DA) rats and the rats were then given treatment with an experimental substance.
The rat model samples used consist of the following blood samples: • 3 samples from AIA DA rats • 4 samples (one of the rats was sampled twice) from AIA DA rats treated with the experimental substance. Extraction of Metabolites from Serum
(§1) Extraction of metabolites from serum samples was essentially performed as the method described by A et al. (2005). 630 μl of MeOH:H2O (9:1 V:V) including internal standards was added to 70 μl of serum. The solution was vortex mixed for 10 s, kept on ice for 10 min, and then vigorously extracted at a frequency of 30 Hz for 3 min using a MM301 vibration Mill (Retsch GmbH & Co. KG, Haan, Germany. After […] on ice, the samples were centrifuged at 19 600 g for 10 min at 4° C. 200 μl of the supernatant was transferred to a GC vial, and 50 μl was transferred to a LC/MS vial and evaporated to dryness.
Prior GC/MS analysis the samples were derivatised with 30 μL of methoxyamine hydrochloride (15 mg mL-1) in pyridine by shaking for 10 min at 5° C., then incubating them for 16 h at room temperature. The samples were then trimethylsilylated by adding 30 μL of […] (MSTFA) with 1% TMCS and incubating them for 1 h at room temperature. After silylation, 30 μL of heptane (containing 0.5 μg methyl stearate as internal standard) was added. 0.1 μl of derivatized sample was injected split less by an Agilent 7683 Series Autosampler (Agilent, Atlanta; GA, USA) into an Agilent 6980 GC equipped with a 10 m×0.18 mm ID, fused silica capillary column chemically bonded with 0.18 μm DB5-MS stationary phase (J&W Scientific, Folsom, Calif., USA). The injector temperature was set at 270° C. Helium was used as carrier gas at a constant flow rate of 1 ml/min through the column. For every analysis, the purge time was set to 60 s at a purge flow rate of 20 ml min-1 and an equilibration time of 1 min. […]

[2] = tested on: AIA Lewis rats; assay: Treatment study of the active compound in AIA Lewis rats; serum metabolite profile by GC/TOFMS and OPLS; assay type: in vivo; details: 1 mg, 3 mg or 10 mg active compound
From the text: This example illustrates the potency of the active compound and its therapeutically active acid addition salts for treatment of […].
AIA was induced in a total of 21 Lewis rats were included in the treatment study. Samples used consist of the following blood samples: • 22 samples from AIA Lewis rats (one of the rats was sampled twice) • 26 samples from treated AIA Lewis rats (five of the rats was sampled twice)
Different treatments were distributed in the AIA subjects as follows: • 5 subjects received 1 mg active compound • 5 subjects received 3 mg active compound • 6 subjects received 10 mg active compound • 5 subjects received 1 mg methotrexate Extraction of Metabolites from Serum
as §1
GC/TOFMS analysis and the Data processing of MS-data was carried out as in Example 1 above.

| Structure (SMILES) | separation of untreated and treated AIA animals in the OPLS-DA scores scatter plot (patterns of endogenous metabolites) ([1]; FIG. 7A) | regulation of endogenous metabolite levels in treated animals (OPLS-DA loadings) [1] | regulation of endogenous metabolite levels in treated animals (OPLS-DA loadings) ([1]; listed as administered substance) | levels of the metabolites associated with AD, effect of treatment [2] | melting point |
| --- | --- | --- | --- | --- | --- |
| N=C(N)NCCC[C@H](N)C(=O)O [experimental substance, Arginine] | well separated | Almost all metabolites are up regulated | up regulation of many of the metabolites | – | – |
| COc1ccc(C=NNC(=N)N)c(Cl)c1OC [active compound, N-(2-chloro-3,4-dimethoxybenzylideneamino)guanidine] | – | – | – | significantly affected | 198 to 200 °C |
